The values below come from BindingDB's records for doi:10.1016/s0196-9781(99)00098-4 (Uppsala University, 1999).

pKi: −log10 of the molar value.

Test [1] concerns the target T1, Neuropeptide Y receptor type 1 (Rattus norvegicus, UniProt P21555).
T1 sequence (P21555 whole entry): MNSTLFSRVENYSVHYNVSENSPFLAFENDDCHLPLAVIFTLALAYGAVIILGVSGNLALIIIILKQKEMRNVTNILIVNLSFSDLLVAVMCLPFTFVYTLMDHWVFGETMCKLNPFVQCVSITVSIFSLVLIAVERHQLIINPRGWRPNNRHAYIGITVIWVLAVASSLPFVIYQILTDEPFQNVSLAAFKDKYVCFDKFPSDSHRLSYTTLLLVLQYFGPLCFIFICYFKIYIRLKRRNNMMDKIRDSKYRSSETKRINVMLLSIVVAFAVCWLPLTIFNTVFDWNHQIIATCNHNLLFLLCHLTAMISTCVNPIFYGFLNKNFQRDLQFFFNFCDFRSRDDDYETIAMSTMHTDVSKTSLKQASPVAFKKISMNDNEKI

The target of test [2] is T2, Neuropeptide Y receptor type 1 (Cavia porcellus, UniProt Q9WVD0).
T2 sequence (Q9WVD0 whole entry): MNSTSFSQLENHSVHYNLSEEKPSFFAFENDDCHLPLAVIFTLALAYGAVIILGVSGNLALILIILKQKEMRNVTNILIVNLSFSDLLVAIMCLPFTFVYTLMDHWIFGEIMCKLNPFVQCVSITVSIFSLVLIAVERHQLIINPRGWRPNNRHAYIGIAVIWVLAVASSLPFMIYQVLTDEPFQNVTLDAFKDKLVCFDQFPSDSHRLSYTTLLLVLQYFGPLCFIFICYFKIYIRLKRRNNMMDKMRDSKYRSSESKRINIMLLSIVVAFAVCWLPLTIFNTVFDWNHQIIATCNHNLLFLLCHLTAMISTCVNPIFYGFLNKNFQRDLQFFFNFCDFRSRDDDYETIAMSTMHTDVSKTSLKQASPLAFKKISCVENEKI

On to “H-INPIYRLRY-NH2 [NPY 28-36, [P30, Y32, L34]]”, for which the pKi in test [1] was 8.85; in test [2] it was 8.62.

Compound `N=C(N)NCCCC(NC(=O)C(c1ccccc1)c1ccccc1)C(=O)NCc1ccc(O)cc1` (stereo not given) [NSC_5311023] had a pKi in test [2] of 8.31.

For `CN(C)CC1CCC(CN=C(N)c2ccc(CC(NC(=O)C(Cc3ccccc3)NS(=O)(=O)c3ccc4ccccc4c3)C(=O)N3CCCC3)cc2)CC1` (stereo not given) [CAS_5312150], the pKi in test [1] was 8.89; in test [2], 9.10.
